Source: patent publication US8003659B2, “Macrocyclic serine protease inhibitors” (Indenix Pharmaceuticals, Inc., priority 2008, dated 2011)

Experiments:
mutant protease R155Q = test: Resistance profile, mutant protease R155Q; format: biochemical, HCV; conditions: ratio of inhibitory activity against mutant enzyme over non-mutant enzyme
Protocol: (§1) General procedure: Measurement of the inhibitory effect of compounds on HCV protease activity was performed with the SensoLyte™ 620 HCV Protease Assay kit from AnaSpec, Inc. (San Jose, Calif.) under conditions described by the supplier using 1.2 nM HCV NS3-NS4A protease, which was obtained according to Taremi et al. (Protein Science, 1998, 7, 2143-2149). The compounds were tested at a variety of concentrations in assay buffer containing a final DMSO concentration of 5%. Reactions were allowed to proceed for 60 min at room temperature and fluorescence measurements were recorded with a Tecan Infinity Spectrofluorimeter. The IC50 values were determined from the percent inhibition versus concentration data using a sigmoidal non-linear regression analysis based on four parameters with Tecan Magellan software.
(§2) Compounds were evaluated against three mutant proteases R155Q, A156S, and D168A, as summarized in Table 8, wherein A represents a value smaller than 1, and B represents a value between 1 to 10, and C represents a value greater than 10. The fold of change in inhibitory activity was determined by measuring the ratio of the inhibitory activity of a compound against a mutant enzyme over the inhibitory activity of the same compound against non-mutant enzyme. The inhibitory activity was determined using the procedure as described in Example 31.

[1] = Cytotoxicity (CC50) in the genotype 1b replicon assay; format: cell-based; conditions: human, GS4.1 cells; genotype 1b replicon assay as described in Example 32
Protocol: For cytotoxicity evaluation, GS4.1 cells were treated with compounds as described above and cellular viability was monitored using the Cell Titer 96 AQueous One Solution Cell Proliferation Assay (Promega). CC50 values were determined from the % cytotoxicity versus concentration data with Tecan Magellan software as described above.
Compounds were tested in a genotype 1b replicon assay as described in Example 32 and the results are summarized in Table 6, wherein A represents a value smaller than 1 μM, and B represents a value between 1 μM to 10 μM, C represents a value between 10 μM to 75 μM and D represents a value greater than 75 μM.

mutant protease D168A = test: Resistance profile, mutant protease D168A; format: biochemical, HCV; conditions: ratio of inhibitory activity against mutant enzyme over non-mutant enzyme
Protocol: as §1, §2

mutant protease A156S = test: Resistance profile, mutant protease A156S; format: biochemical, HCV; conditions: ratio of inhibitory activity against mutant enzyme over non-mutant enzyme
Protocol: as §1, §2

HCV NS3-NS4A protease = biological target: T1, HCV NS3-NS4A protease (Hepatitis C virus genotype 1b, UniProt P26663); test: HCV Protease Assay (SensoLyte 620 HCV Protease Assay kit); format: biochemical; conditions: 1.2 nM HCV NS3-NS4A protease, 60 min at room temperature, 5% DMSO
T1 construct: made in house
Procedure, shortened: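 Protease at 1.2 nM, run with the SensoLyte 620 fluorogenic kit under supplier conditions, with compounds at several concentrations in buffer with 5% final DMSO. Reactions ran 60 min at room temperature before fluorescence reading; IC50 from four-parameter sigmoidal fit of percent inhibition.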

T1 sequence (P26663 1027-1208): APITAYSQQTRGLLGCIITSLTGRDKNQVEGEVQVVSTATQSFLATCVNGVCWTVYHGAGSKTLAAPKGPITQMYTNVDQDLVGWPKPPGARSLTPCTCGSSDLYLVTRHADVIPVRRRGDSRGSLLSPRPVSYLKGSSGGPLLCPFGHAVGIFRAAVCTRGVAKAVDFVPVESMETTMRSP

With `COc1ccc2c(O[C@H]3C[C@H]4C(=O)N(C)CCCC/C=C\[C@@H]5C[C@@]5(C(=O)NS(=O)(=O)C5CC5)NC(=O)N4C3)cc(-c3nc(C(C)C)cs3)nc2c1Cl` [Compound 62d, (Z)-(4R,6S,15S,17S)-[17-[8-chloro-7-methoxy-2-(4-isopropylthiazol-2-yl)quinolin-4-yloxy]-13-N-methyl-2,14-dioxo-1,3,13-triazatricyclo[13.3.0.0]octadec-7-en-4-yl]carbonyl(cyclopropyl)sulfonamide] the “Fold-Change R155Q” value (mutant protease R155Q) was “A (A represents a value smaller than 1)”, the CC50 [1] was 10 to 75 µM and the “Fold-Change D168A” value (mutant protease D168A) was “C (C represents a value greater than 10)”. The “Fold-Change A156S” value (mutant protease A156S) was “A (A represents a value smaller than 1)” and the IC50 (HCV NS3-NS4A protease) was < 1 µM.
